Target: T1, full-length ATR (Homo sapiens, UniProt Q13535)
T1 construct: Assays were carried out at 25° C. in the presence of 5 nM full-length ATR
Experiment: ATR Inhibition Assay (radioactive-phosphate incorporation)
Assay type: biochemical
Conditions: for inhibition at 8 µM / % inhibition of ATR: at 8 uM
Procedure: Compounds were screened for their ability to inhibit ATR kinase using a radioactive-phosphate incorporation assay. Assays were carried out in a mixture of 50 mM Tris/HCl (pH 7.5), 10 mM MgCl2 and 1 mM DTT. Final substrate concentrations were 10 μM [γ-33P]ATP (3mCi 33P ATP/mmol ATP, Perkin Elmer) and 800 μM target peptide ([…] (SEQ. ID NO: 1)).
Assays were carried out at 25° C. in the presence of 5 nM full-length ATR. An assay stock buffer solution was prepared containing all of the reagents listed above, with the exception of ATP and the test compound of interest. 13.5 μL of the stock solution was placed in a 96 well plate followed by addition of 2 μL of DMSO stock containing serial dilutions of the test compound (typically starting from a final concentration of 15 μM with 3-fold serial dilutions) in duplicate (final DMSO concentration 7%). The plate was pre-incubated for 10 minutes at 25° C. and the reaction initiated by addition of 15 μl. [γ-33P]ATP (final concentration 10 μM).
The reaction was stopped after […] by the addition of 30 μL 0.1 M phosphoric acid containing 2 mM ATP. A multiscreen phosphocellulose filter 96-well plate (Millipore, Cat no. MAPHN0B50) was pretreated with 100 μL 0.2M phosphoric acid prior to the addition of 45 μL of the stopped assay mixture. The plate was washed with 5×200 μL 0.2 M phosphoric acid. After drying, 100 μL Optiphase ‘SuperMix’ liquid scintillation cocktail (Perkin Elmer) was added to the well prior to scintillation counting (1450 Microbeta Liquid Scintillation Counter, Wallac).
After removing mean background values for all of the data points, Ki(app) data were calculated from non-linear regression analysis of the initial rate data using the Prism software package (GraphPad Prism version 3.0cx for Macintosh, GraphPad Software, San Diego Calif., USA).

T1 sequence (Q13535 whole entry): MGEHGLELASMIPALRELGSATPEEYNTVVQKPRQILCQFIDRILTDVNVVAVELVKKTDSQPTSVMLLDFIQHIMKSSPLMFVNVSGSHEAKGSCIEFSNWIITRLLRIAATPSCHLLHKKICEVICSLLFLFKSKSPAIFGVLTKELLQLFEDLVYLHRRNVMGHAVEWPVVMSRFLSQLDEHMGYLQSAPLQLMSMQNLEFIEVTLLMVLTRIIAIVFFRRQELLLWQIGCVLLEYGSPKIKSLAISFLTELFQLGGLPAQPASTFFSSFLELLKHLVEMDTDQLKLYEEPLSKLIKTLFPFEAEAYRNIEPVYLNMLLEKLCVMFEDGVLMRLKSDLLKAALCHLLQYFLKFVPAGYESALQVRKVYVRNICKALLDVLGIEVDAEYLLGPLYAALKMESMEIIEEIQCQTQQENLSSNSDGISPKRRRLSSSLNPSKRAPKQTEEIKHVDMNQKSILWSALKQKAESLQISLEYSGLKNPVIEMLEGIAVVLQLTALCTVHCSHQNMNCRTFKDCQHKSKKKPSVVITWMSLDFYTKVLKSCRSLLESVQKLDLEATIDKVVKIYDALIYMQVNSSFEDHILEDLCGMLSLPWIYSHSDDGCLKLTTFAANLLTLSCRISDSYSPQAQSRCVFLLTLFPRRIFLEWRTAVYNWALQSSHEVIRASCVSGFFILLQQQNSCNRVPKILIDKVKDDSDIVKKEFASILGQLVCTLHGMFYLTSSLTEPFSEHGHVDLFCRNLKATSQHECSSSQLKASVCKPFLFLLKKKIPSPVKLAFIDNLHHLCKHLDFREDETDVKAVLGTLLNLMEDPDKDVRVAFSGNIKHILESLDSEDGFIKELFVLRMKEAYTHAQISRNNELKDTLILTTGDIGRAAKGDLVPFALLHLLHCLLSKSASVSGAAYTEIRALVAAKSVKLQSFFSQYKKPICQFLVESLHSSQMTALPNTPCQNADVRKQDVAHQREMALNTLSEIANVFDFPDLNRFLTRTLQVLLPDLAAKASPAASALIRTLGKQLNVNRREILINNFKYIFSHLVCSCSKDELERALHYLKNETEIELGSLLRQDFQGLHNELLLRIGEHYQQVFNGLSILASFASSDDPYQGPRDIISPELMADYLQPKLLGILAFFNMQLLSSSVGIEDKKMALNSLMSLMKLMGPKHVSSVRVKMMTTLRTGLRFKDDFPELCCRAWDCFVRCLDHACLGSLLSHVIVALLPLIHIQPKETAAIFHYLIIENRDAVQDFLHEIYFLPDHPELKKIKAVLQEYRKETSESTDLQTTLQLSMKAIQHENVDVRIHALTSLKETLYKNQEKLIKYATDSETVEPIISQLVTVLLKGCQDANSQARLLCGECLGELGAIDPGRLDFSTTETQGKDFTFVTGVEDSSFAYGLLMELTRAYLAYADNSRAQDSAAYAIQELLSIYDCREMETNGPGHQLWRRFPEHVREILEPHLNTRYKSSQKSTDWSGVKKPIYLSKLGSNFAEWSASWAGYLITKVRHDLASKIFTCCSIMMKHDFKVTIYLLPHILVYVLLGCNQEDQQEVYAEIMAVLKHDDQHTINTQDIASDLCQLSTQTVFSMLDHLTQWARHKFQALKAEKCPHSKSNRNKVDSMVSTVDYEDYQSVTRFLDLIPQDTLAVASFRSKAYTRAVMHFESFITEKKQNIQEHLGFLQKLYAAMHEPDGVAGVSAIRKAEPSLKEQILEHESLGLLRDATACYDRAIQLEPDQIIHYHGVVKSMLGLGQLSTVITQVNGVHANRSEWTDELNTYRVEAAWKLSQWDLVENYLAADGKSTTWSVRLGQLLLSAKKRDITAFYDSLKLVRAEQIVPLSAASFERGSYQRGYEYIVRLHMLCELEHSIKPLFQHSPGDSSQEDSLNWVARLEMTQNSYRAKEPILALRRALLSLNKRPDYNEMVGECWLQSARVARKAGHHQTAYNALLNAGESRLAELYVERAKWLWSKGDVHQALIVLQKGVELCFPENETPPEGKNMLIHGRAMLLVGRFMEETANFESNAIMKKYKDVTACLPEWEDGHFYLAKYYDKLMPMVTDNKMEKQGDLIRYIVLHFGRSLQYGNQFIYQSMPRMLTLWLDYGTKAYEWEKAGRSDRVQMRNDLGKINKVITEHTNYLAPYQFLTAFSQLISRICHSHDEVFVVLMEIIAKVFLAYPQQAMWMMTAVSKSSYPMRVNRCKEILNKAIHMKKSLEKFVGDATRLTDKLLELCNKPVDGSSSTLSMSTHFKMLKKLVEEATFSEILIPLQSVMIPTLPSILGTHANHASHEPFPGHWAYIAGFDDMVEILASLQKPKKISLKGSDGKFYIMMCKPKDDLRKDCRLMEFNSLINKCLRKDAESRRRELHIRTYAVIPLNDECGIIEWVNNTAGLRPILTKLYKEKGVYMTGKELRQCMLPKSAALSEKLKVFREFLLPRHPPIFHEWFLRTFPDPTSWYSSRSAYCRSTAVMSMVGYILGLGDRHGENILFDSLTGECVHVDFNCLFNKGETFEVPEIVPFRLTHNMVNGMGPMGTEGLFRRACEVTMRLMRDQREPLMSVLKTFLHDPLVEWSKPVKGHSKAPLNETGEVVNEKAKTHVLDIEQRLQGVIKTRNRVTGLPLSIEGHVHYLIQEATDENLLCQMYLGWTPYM

SMILES | Ki [µM] | inhibition at 8 µM [%] | % inhibition of ATR
CC(C)S(=O)(=O)c1ccc(-c2cnc(N)c(NCCc3ccccc3)n2)cc1 [Compound V-5, 5-(4-Isopropylsulfonylphenyl)-N3-phenethyl-pyrazine-2,3-diamine] | – | 20 | –
CC(C)S(=O)(=O)c1ccc(-c2cnc(N)c(NC[C@H](O)c3ccccc3)n2)cc1 [Compound V-6, (1R)-2-[[3-amino-6-(4-isopropylsulfonylphenyl)pyrazin-2-yl]amino-]-1-phenyl-ethanol] | > 1 | 10 | –
CC(C)S(=O)(=O)c1ccc(-c2cnc(N)c(N3CCC(N)C3)n2)cc1 (centres unmarked) [Compound V-2, 3-(3-Aminopyrrolidin-1-yl)-5-(4-isopropylsulfonylphenyl)pyrazin-2-amine] | > 1 | 10 | –
CC(C)S(=O)(=O)c1ccc(-c2cnc(N)c(NCCc3ccccc3)n2)cc1 [Compound V-13, 6-(4-(isopropylsulfonyl)phenyl)-N2-phenethylpyrazine-2,3-diamine] | > 1 | – | –
CC(C)S(=O)(=O)c1ccc(-c2cnc(N)c(N3CCN(c4ccccc4)CC3)n2)cc1 [Compound V-1, 5-(4-Isopropylsulfonylphenyl)-3-(4-phenylpiperazin-1-yl)pyrazin-2-amine] | – | – | no detectable inhibition
CC(C)S(=O)(=O)c1ccc(-c2cnc(N)c(NC[C@@H](O)c3ccccc3)n2)cc1 [Compound V-7, (1S)-2-[[3-Amino-6-(4-isopropylsulfonylphenyl)pyrazin-2-yl]amino]-1-phenyl-ethanol] | > 1 | 30 | –

Next, values leading:

Ki [µM] | inhibition at 8 µM [%] | % inhibition of ATR | SMILES
≤ 0.1 | – | – | CC(C)S(=O)(=O)c1ccc(-c2cnc(N)c(C(=O)c3ccccc3)n2)cc1 [Compound V-12, [3-Amino-6-(4-isopropylsulfonylphenyl)pyrazin-2-yl]-phenyl-methanone]
0.1 to 1 | – | – | CC(C)n1cc(-c2cnc(N)c(OCc3ccccc3)n2)ccc1=O [Compound V-15, 5-(5-amino-6-(benzyloxy)pyrazin-2-yl)-1-isopropylpyridin-2(1H)-one]
> 1 | – | no detectable inhibition | CS(=O)(=O)c1ccc(-c2cnc(N)c(NS(=O)(=O)c3ccccc3)n2)cc1 [Compound V-14, N-(3-amino-6-(4-(methylsulfonyl)phenyl)pyrazin-2-yl)benzenesulfonamide]
> 1 | 10 | – | CC(C)S(=O)(=O)c1ccc(-c2cnc(N)c(NCc3ccccc3)n2)cc1 [Compound V-3]
≤ 0.1 | – | – | CC(C)S(=O)(=O)c1ccc(-c2cnc(N)c(/C(F)=C/c3ccccc3)n2)cc1 [Compound V-16, (Z)-3-(1-fluoro-2-phenylvinyl)-5-(4-(isopropylsulfonyl)phenyl)pyrazin-2-amine]
≤ 0.1 | – | – | CC(C)S(=O)(=O)c1ccc(-c2cnc(N)c(CCc3ccccc3)n2)cc1 [Compound V-11, 5-(4-Isopropylsulfonylphenyl)-3-phenethyl-pyrazin-2-amine]
≤ 0.1 | – | – | CS(=O)(=O)c1ccc(-c2cnc(N)c(/C=C/c3ccccc3)n2)cc1 [Compound V-10]
≤ 0.1 | – | – | CS(=O)(=O)c1ccc(-c2cnc(N)c(OCc3ccccc3)n2)cc1 [Compound V-9]
0.1 to 1 | – | – | CC(C)S(=O)(=O)c1ccc(-c2cnc(N)c(NCC3=CC(O)CC=C3)n2)cc1 (centres unmarked) [Compound V-4]
